One test concerns the target VchCAβ (Vibrio cholerae, UniProt Q9KUD6). Put plainly: biochemical.
The next test concerns the target VchCAα (Vibrio cholerae, UniProt Q9KMP6). Put plainly: stopped-flow CO2 hydrase assay. Type of test: biochemical.

Molecules are shown by their SMILES.

Chain of VchCAα (Q9KMP6 21-239): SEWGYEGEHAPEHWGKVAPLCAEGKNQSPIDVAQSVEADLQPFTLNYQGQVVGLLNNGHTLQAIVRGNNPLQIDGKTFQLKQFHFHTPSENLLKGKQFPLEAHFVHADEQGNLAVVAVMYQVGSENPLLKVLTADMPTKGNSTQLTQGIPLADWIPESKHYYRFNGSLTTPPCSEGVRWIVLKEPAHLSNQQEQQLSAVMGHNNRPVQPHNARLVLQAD
Chain of VchCAβ (Q9KUD6 1-222): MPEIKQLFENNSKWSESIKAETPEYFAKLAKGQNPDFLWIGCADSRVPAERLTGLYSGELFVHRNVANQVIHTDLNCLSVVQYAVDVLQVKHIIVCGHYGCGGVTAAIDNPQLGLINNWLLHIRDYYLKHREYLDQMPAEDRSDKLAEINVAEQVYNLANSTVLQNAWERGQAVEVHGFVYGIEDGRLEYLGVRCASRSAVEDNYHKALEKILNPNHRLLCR

For the compound `NS(=O)(=O)CCCn1cc(COc2ccccc2)nn1` [compound 1, 1], the Ki (commonly the dissociation constant of the complex between target and ligand, obtained from inhibition or displacement) was 4.16 µM on VchCAβ and 29.1 µM on VchCAα.
`COc1ccc(OCc2cn(CCCS(N)(=O)=O)nn2)cc1` [compound 3, 3]: the Ki stood at 2.96 µM on VchCAβ and 16.5 µM at VchCAα.
Take `NS(=O)(=O)CCCn1cc(CNC(=O)Nc2ccc(F)cc2)nn1` [compound 5, 5]: the Ki at VchCAβ turned out to be 0.93 µM; at VchCAα, 13.4 µM.
As for `Cc1ccc(NC(=O)NCc2cn(CCCS(N)(=O)=O)nn2)cc1` [compound 6, 6], the Ki on VchCAβ came out at 0.82 µM.
`NS(=O)(=O)CCCn1cc(CNC(=O)Nc2ccc(C(F)(F)F)cc2)nn1` [compound 7, 7]: the Ki is 0.67 µM on VchCAβ and 11.2 µM on VchCAα.
Regarding `COc1cccc(NC(=O)NCc2cn(CCCS(N)(=O)=O)nn2)c1` [compound 9, 9], the inhibition constant (Ki) stood at 1.72 µM on VchCAβ and 17.5 µM on VchCAα.
Turning to `NS(=O)(=O)CCCCn1cc(COc2ccccc2)nn1` [compound 14, 14], the Ki was determined as 6.91 µM at VchCAβ and 34.4 µM on VchCAα.
As for `COc1ccc(OCc2cn(CCCCS(N)(=O)=O)nn2)cc1` [compound 16, 16], the Ki at VchCAβ was found to be 6.13 µM; on VchCAα it was 28.7 µM.
`NS(=O)(=O)CCCCn1cc(CNC(=O)Nc2ccc(F)cc2)nn1` [compound 18, 18]: the Ki at VchCAβ turned out to be 3.41 µM; on VchCAα, 16.9 µM.
Turning to `Cc1ccc(NC(=O)NCc2cn(CCCCS(N)(=O)=O)nn2)cc1` [compound 19, 19], the Ki at VchCAβ was 2.86 µM; on VchCAα it was 18.3 µM.
Regarding `NS(=O)(=O)CCCCn1cc(CNC(=O)Nc2ccc(C(F)(F)F)cc2)nn1` [compound 20, 20], the values for the Ki at VchCAβ and at VchCAα were 3 µM and 16.8 µM, respectively.
Take `COc1cccc(NC(=O)NCc2cn(CCCCS(N)(=O)=O)nn2)c1` [compound 22, 22]: the values for the Ki on VchCAβ and at VchCAα were 1.97 µM and 14 µM, respectively.

The values are drawn from article PMC11650360 (Archiv Der Pharmazie, 2024).
